Test results: patent EP2799074A1, “Iron bis-glycinate chelate for use in the oral treatment of anemia in patients with celiac disease” (Laboratori Baldacci S.P.A., priority 2009, dated 2011)
Values joined by “and” are separate entries in the source; they are usually repeats but may differ in a detail not shown here. Equal values may be shown once. Read-outs that look alike come from different tables or passages of the source.

How the values were obtained:
[1] = with respect to mineral salts, such as ferrous sulphate; literature data; cited from earlier work
[2] = tested on: celiac subjects, with sideropenic anemia; test: Efficiency comparison between oral iron bis-glycinate chelate (effervescent tablet of example 1) and conventional treatment in celiac patients; haemochromocytometric test; format: in vivo, human; settings: for Hb values / Serum iron values / Values of Ferritin: one patient per line; for Serum iron values / Values of Ferritin: after initial therapy (Fe sulphate p.o. and/or sodium ferric gluconate i.v.)
Excerpt: 12 celiac subjects, with sideropenic anemia diagnosed according to the hemoglobin (Hb), ferritin and iron (serum iron) values obtained from the haemochromocytometric test were included in this experiment.
Celiac disease was diagnosed according to the clinical manifestations and histology reports regarding the intestinal mucosa.
These patients were then subjected to a therapy using the iron bis-glycinate chelate according to the invention, formulated in the effervescent tablet of example 1.
The hemoglobin (Hb), (Table 1), ferritin (Table 2) and serum iron (Table 3) values taken from each treated patient, both after the conventional therapy (oral and/or intravenous) and after the oral administration according to the present invention (effervescent tablet) were considered for the evaluation.
A therapy cycle corresponds to the treatment for 20 days with two effervescent tablets per day containing about 14 mg of iron ion per tablet and then, an effervescent tablet per day containing 14 mg of iron ion, for further 40 days.
The subsequent maintenance corresponds to the treatment for 20 days with two effervescent tablets per day containing about 14 mg of iron ion per tablet, every 3 months for about one year.
The hemoglobin, ferritin and serum iron blood values were determined after the first treatment cycle and the treatment was continued with repeated cycles according to the previously indicated methods.

[3] = cited from earlier work
celiac patients [4] = test: Clinical records of celiac patients treated with conventional iron salts p.o. and i.v. (Examples 6-11)
Description: (§1) All patients were initially treated with ferrous sulphate orally (1 tablet of ferrous sulphate, corresponding to 105 mg of iron ion) for 40 days and/or with sodium ferric gluconate by intravenous administration for a variable period of time according to the seriousness of the anemic status.
(§2) All patients were diagnosed with celiac disease through bioptic sampling and with serological tests. During the conventional therapy, the diet of said patients was controlled and corrected with gluten-free foods.

celiac patients [5] = settings: human, in vivo
Description: as §1, §2

[6] = Patient I, ferrous sulphate oral, Final values, 40 days
[7] = Patient I, ferrous sulphate oral, Initial values, 40 days
[8] = Patient II, ferrous sulphate oral, Final values, 8/10 days
[9] = Patient II, ferrous sulphate oral, Initial values, 8/10 days
[10] = Patient III, ferrous sulphate oral, Final values, 40 days
[11] = Patient III, ferrous sulphate oral, Initial values, 40 days
[12] = Patient V, ferrous sulphate oral, Final values, 40 days
[13] = Patient V, ferrous sulphate oral, Initial values, 40 days
[14] = Patient I, iron polymaltosate oral, Final values, 20 days
[15] = Patient I, iron polymaltosate oral, Initial values, 20 days
[16] = Patient I, ferric iron i.v., Final values, 20 days
[17] = Patient I, ferric iron i.v., Initial values, 20 days
[18] = Patient II, ferric iron i.v., Final values, few days
[19] = Patient II, ferric iron i.v., Initial values, few days
[20] = Patient IV, ferric iron i.v., Final values, 20 days
[21] = Patient IV, ferric iron i.v., Initial values, 20 days
[22] = Patient VI, iron i.v., Final values, 20 days
[23] = Patient VI, iron i.v., Initial values, 20 days

NCC(=O)[O-].NCC(=O)[O-].[Fe+2] [Iron bis-glycinate chelate, iron bis-glycinate chelate]
bioavailability [1]: greater bioavailability
hemoglobin, ferritin and serum iron value ([2]; after I therapy cycle, celiac patients): considerably increases
Hb values ([2]; after efferv. tab therapy 1st cycle: two effervescent tablets per day for 20 days, then one per day for 40 days): 12.5 g/100 ml and 12.0 g/100 ml (2×) and 13.1 g/100 ml and 11.7 g/100 ml and 11.8 g/100 ml and 12.8 g/100 ml and 12.3 g/100 ml and 12.7 g/100 ml and 11.9 g/100 ml and 12.1 g/100 ml and 10.0 g/100 ml
Hb values ([2]; after maintenance efferv. tab.: two tablets per day for 20 days every 3 months for about one year): 13.6 g/100 ml and 12.9 g/100 ml (2×) and 14.3 g/100 ml and 13.4 g/100 ml (2×) and 13.2 g/100 ml and 12.3 g/100 ml and 14.0 g/100 ml and 13.1 g/100 ml and 12.7 g/100 ml and 12.1 g/100 ml
adverse effects ([2]; oral treatment of 12 celiac patients with the effervescent tablet of example 1): did not reveal any adverse effects worth mentioning
hydrolysis ([3]; different pH values of the gastrointestinal section): does not undergo hydrolysis
separation into iron ion ([3]; pH interval comprised between 3 and 10): not separated into iron ion

O=S(=O)([O-])[O-].[Fe+2] [ferrous sulphate]
Serum iron values [2]: 34 µg/dL and 16 µg/dL
Values of Ferritin [2]: 23 ng/mL and <5 ng/mL
tolerability / adverse events of the treatment (celiac patients [4]; Patient I - Female): intestinal intolerance
Ferritin (celiac patients [4]; [6]): 38
Serum iron (celiac patients [4]; [6]): 48
Hb (celiac patients [4]; Patient I, ferrous sulphate oral, Final values, duration 40 days): 11.1
Ferritin (celiac patients [4]; [7]): 32
Serum iron (celiac patients [4]; [7]): 41
Hb (celiac patients [4]; Patient I, ferrous sulphate oral, Initial values, duration 40 days): 10.2
Ferritin (celiac patients [4]; [8]): 45
Hb (celiac patients [4]; [8]): 12.3
Serum iron (celiac patients [4]; [8]): 68
Ferritin (celiac patients [4]; [9]): 41
Hb (celiac patients [4]; [9]): 11.6
Serum iron (celiac patients [4]; [9]): 55
Ferritin (celiac patients [4]; [10]): 27
Hb (celiac patients [4]; [10]): 10
Serum iron (celiac patients [4]; [10]): 38
Ferritin (celiac patients [4]; [11]): 19
Hb (celiac patients [4]; [11]): 9.1
Serum iron (celiac patients [4]; [11]): 32
Hb (celiac patients [4]; Patient V, ferrous sulphate oral, after several therapy cycles, Initial values, 40 days): 8.4
Ferritin (celiac patients [4]; [12]): 21
Hb (celiac patients [4]; [12]): 9.7
Serum iron (celiac patients [4]; [12]): 46
Ferritin (celiac patients [4]; [13]): <5
Serum iron (celiac patients [4]; [13]): 22

iron polymaltosate
Ferritin (celiac patients [4]; [14]): 25
Hb (celiac patients [4]; [14]): 10.8
Serum iron (celiac patients [4]; [14]): 43
Ferritin (celiac patients [4]; [15]): 29
Hb (celiac patients [4]; [15]): 10.6
Serum iron (celiac patients [4]; [15]): 38
tolerability / adverse events of the treatment (celiac patients [5]): well tolerated

sodium ferric gluconate
Serum iron values [2]: 30 µg/dL
Values of Ferritin [2]: 22 ng/mL
Ferritin (celiac patients [4]; [16]): 30
Hb (celiac patients [4]; [16]): 9.8
Serum iron (celiac patients [4]; [16]): 48
Ferritin (celiac patients [4]; [17]): <5
Serum iron (celiac patients [4]; [17]): 19
Hb (celiac patients [4]; Patient I, ferric iron i.v., Initial values, 20 days, 1 vial/day for 10 days, then 2 vials/day): 7.7
Ferritin (celiac patients [4]; [18]): 33
Serum iron (celiac patients [4]; [18]): 49
Hb (celiac patients [4]; Patient II, ferric iron i.v., Final values, few days, cycle not completed): 10.8
Ferritin (celiac patients [4]; [19]): 31
Serum iron (celiac patients [4]; [19]): 40
Hb (celiac patients [4]; Patient II, ferric iron i.v., Initial values, few days, cycle not completed): 10.4
Ferritin (celiac patients [4]; [20]): 42
Hb (celiac patients [4]; [20]): 10.6
Serum iron (celiac patients [4]; [20]): 54
Ferritin (celiac patients [4]; [21]): 21
Serum iron (celiac patients [4]; [21]): 39
Hb (celiac patients [4]; Patient IV, ferric iron i.v., Initial values, 20 days, 1 vial/day for 10 days, then 2 vials/day): 9.7
values of Hb (celiac patients [4]; Patient IV, iron i.v., cycles every 3/4 months): around 11 gr/dl
Ferritin (celiac patients [4]; [22]): 81
Hb (celiac patients [4]; [22]): 12.6
Serum iron (celiac patients [4]; [22]): 68
Ferritin (celiac patients [4]; [23]): 35
Hb (celiac patients [4]; [23]): 10.2
Serum iron (celiac patients [4]; [23]): 41
tolerability / adverse events of the treatment (celiac patients [5]; iv): skin rush and asthmatic crisis
